Test results from patent US9775878B2, “Methods for treating bacterial infections using oritavancin and polymyxins” (The Medicines Company, priority 2013, dated 2017).
Where two headings read alike, the source gives them in different places. One block for each compound: values may come before it.

What was measured:
[1] = system: Acinetobacter baumannii strains; assay: Broth macrodilution MICs under conditions used for synergy time-kill assays; assay type: cell-based; settings: for MIC: Acinetobacter baumannii, read-out: Broth macrodilution MICs
Procedure: (§1) Broth microdilution MIC testing (CLSI M07-A9) was performed on the Acinetobacter baumannii (AB) reference strain ATCC 19606 (obtained from ATCC) and 10 AB strains, including 8 MDRAB (resistant to ≧3 of the following: beta-lactams, gentamicin, fluoroquinolones and tetracycline; obtained from Eurofins Medinet Chantilly, Va.). The requirement of 0.002% polysorbate 80 (P-80) for testing oritavancin also necessitated the testing of COL in the presence of P80. Checkerboard assays were used to determine activity of antimicrobial combinations; fractional inhibitory concentration indices (FICI) were used to define synergy, indifference or antagonism. Broth macrodilution MICs were determined following conditions used for synergy time-kill assays. Synergy time-kill studies were performed following CLSI guidelines.
(§2) Minimum inhibitory concentrations (MICs). Broth microdilution MICs were determined according to CLSI (CLSI document M7-A9, 2013) guidelines with the exception that COL MICs were also determined in the presence of 0.002% polysorbate 80 (P80) since P80 was to be present in the combination tests because of its requirement for testing oritavancin. Broth macrodilution MICs were determined following conditions used for synergy time-kill assays.

[2] = system: Acinetobacter baumannii strains; assay: Synergy time-kill assay; assay type: cell-based; settings: concentration of the agent within the ORI+COL combination, ≧2 log CFU/mL decrease vs most active constituent at 24 h, 0.002% P80
Procedure: as §1
Time-kill assays followed CLSI guidelines (NCCLS, CLSI document M26-A2, 1999) with the exception that 96 deep-well plates were used. Exponential-phase bacteria were diluted to approximately 5×10^5 colony-forming units (CFU)/mL and exposed to ORI or COL alone, or in combination in CAMHB containing 0.002% P80. Bacteria were enumerated by serial dilution plating. To prevent drug carryover during serial dilution plating, aliquots of the drug-challenged culture were added to an equal volume of 25 mg/mL activated charcoal suspension. […] All experiments were repeated at least two times and a representative experiment is presented in the plots; data points are an average of duplicate CFU/mL determinations within an experiment.

[3] = system: Acinetobacter baumannii strains; assay: Broth macrodilution MICs under conditions used for synergy time-kill assays; assay type: cell-based
[4] = system: S. aureus (MSSA, MRSA, VRSA); settings: within 15 minutes to 2 hours, MRSA and VRSA; cited from earlier work
[5] = system: Acinetobacter baumannii strains; assay: Broth microdilution MIC of colistin in absence and presence of 0.002% polysorbate 80; assay type: cell-based; settings: for Colistin MIC −P80: absence of polysorbate 80; for Colistin MIC +P80: presence of 0.002% polysorbate-80
Procedure: as §1, with “([…])” for “(AB) reference strain ATCC 19606 (obtained from ATCC)”
as §2

[6] = strain 2691748 (Non-MDR), agent alone, time-kill conditions
[7] = strain 2691818 (Non-MDR), agent alone, time-kill conditions
[8] = strain 2691999 (MDR), agent alone, time-kill conditions
[9] = strain 2692406 (MDR), agent alone, time-kill conditions
[10] = strain 2692650 (MDR), agent alone, time-kill conditions
[11] = strain 2693922 (MDR), agent alone, time-kill conditions
[12] = strain 2694038 (MDR), agent alone, time-kill conditions
[13] = strain 2694224 (MDR), agent alone, time-kill conditions
[14] = strain 2694227 (MDR), agent alone, time-kill conditions

Compound: CN[C@H](CC(C)C)C(=O)N[C@H]1C(=O)N[C@@H](CC(N)=O)C(=O)N[C@H]2C(=O)N[C@H]3C(=O)N[C@H](C(=O)N[C@H](C(=O)O)c4cc(O)cc(O)c4-c4cc3ccc4O)[C@H](O[C@H]3C[C@](C)(N)[C@@H](O)[C@H](C)O3)c3ccc(c(Cl)c3)Oc3cc2cc(c3O[C@@H]2O[C@H](CO)[C@@H](O)[C@H](O)[C@H]2O[C@H]2C[C@](C)(NCc3ccc(-c4ccc(Cl)cc4)cc3)[C@@H](O)[C@H](C)O2)Oc2ccc(cc2Cl)[C@H]1O [ORI, Oritavancin]
MIC [1]: > 8 µg/mL | Broth macrodilution MICs [1, 6]: >8 µg/mL | Broth macrodilution MICs [1, 7]: >8 µg/mL | Broth macrodilution MICs [1, 8]: >8 µg/mL | Broth macrodilution MICs [1, 9]: >8 µg/mL | Broth macrodilution MICs [1, 10]: >8 µg/mL | Broth macrodilution MICs [1, 11]: >8 µg/mL | Broth macrodilution MICs [1, 12]: >8 µg/mL | Broth macrodilution MICs [1, 13]: >8 µg/mL | Broth macrodilution MICs [1, 14]: >8 µg/mL | Concentrations that yielded synergy in time-kill ([2]; strain 2691748 (Non-MDR)): 8 µg/mL | Concentrations that yielded synergy in time-kill ([2]; strain 2691818 (Non-MDR)): 4 µg/mL | Concentrations that yielded synergy in time-kill ([2]; strain 2691999 (MDR)): 4 µg/mL | Concentrations that yielded synergy in time-kill ([2]; strain 2692406 (MDR)): 4 µg/mL | Concentrations that yielded synergy in time-kill ([2]; strain 2692650 (MDR)): 4 µg/mL | Concentrations that yielded synergy in time-kill ([2]; strain 2692721 (MDR)): 4 µg/mL | Concentrations that yielded synergy in time-kill ([2]; strain 2693922 (MDR)): 4 µg/mL | Concentrations that yielded synergy in time-kill ([2]; strain 2694038 (MDR)): 4 µg/mL | Concentrations that yielded synergy in time-kill ([2]; strain 2694224 (MDR)): 4 µg/mL | Concentrations that yielded synergy in time-kill ([2]; strain 2694227 (MDR)): 4 µg/mL | Concentrations that yielded synergy in time-kill ([2]; strain ATCC 19609 (Non-MDR)): 4 µg/mL | MIC ([3]; ATCC19609, read-out: Broth macrodilution MICs): > 8 µg/mL | Reduction of exponentially-growing S. aureus (rapidity of bactericidal activity) [4]: ≥ 3 log

Fold change in MIC (−P80/+P80) ([5]; strain 2691748 (Non-MDR)): 8 | Colistin MIC −P80 ([5]; strain 2691748 (Non-MDR)): 4 µg/mL | Colistin MIC +P80 ([5]; strain 2691748 (Non-MDR)): 0.5 µg/mL | Fold change in MIC (−P80/+P80) ([5]; strain 2691818 (Non-MDR)): 2 | Colistin MIC −P80 ([5]; strain 2691818 (Non-MDR)): 2 µg/mL | Colistin MIC +P80 ([5]; strain 2691818 (Non-MDR)): 1 µg/mL | Fold change in MIC (−P80/+P80) ([5]; strain 2691999 (MDR)): 4 | Colistin MIC −P80 ([5]; strain 2691999 (MDR)): 1 µg/mL | Colistin MIC +P80 ([5]; strain 2691999 (MDR)): 0.25 µg/mL | Fold change in MIC (−P80/+P80) ([5]; strain 2692406 (MDR)): 16 | Colistin MIC −P80 ([5]; strain 2692406 (MDR)): 2 µg/mL | Colistin MIC +P80 ([5]; strain 2692406 (MDR)): 0.125 µg/mL | Fold change in MIC (−P80/+P80) ([5]; strain 2692650 (MDR)): 4 | Colistin MIC −P80 ([5]; strain 2692650 (MDR)): 0.5 µg/mL | Colistin MIC +P80 ([5]; strain 2692650 (MDR)): 0.125 µg/mL | Fold change in MIC (−P80/+P80) ([5]; strain 2692721 (MDR)): 4 | Colistin MIC −P80 ([5]; strain 2692721 (MDR)): 1 µg/mL | Colistin MIC +P80 ([5]; strain 2692721 (MDR)): 0.25 µg/mL | Fold change in MIC (−P80/+P80) ([5]; strain 2693922 (MDR)): 4 | Colistin MIC −P80 ([5]; strain 2693922 (MDR)): 0.5 µg/mL | Colistin MIC +P80 ([5]; strain 2693922 (MDR)): 0.125 µg/mL | Fold change in MIC (−P80/+P80) ([5]; strain 2694038 (MDR)): 4 | Colistin MIC −P80 ([5]; strain 2694038 (MDR)): 1 µg/mL | Colistin MIC +P80 ([5]; strain 2694038 (MDR)): 0.25 µg/mL | Fold change in MIC (−P80/+P80) ([5]; strain 2694224 (MDR)): 4 | Colistin MIC −P80 ([5]; strain 2694224 (MDR)): 1 µg/mL | Colistin MIC +P80 ([5]; strain 2694224 (MDR)): 0.25 µg/mL | Fold change in MIC (−P80/+P80) ([5]; strain 2694227 (MDR)): 8 | Colistin MIC −P80 ([5]; strain 2694227 (MDR)): 1 µg/mL | Colistin MIC +P80 ([5]; strain 2694227 (MDR)): 0.125 µg/mL | Fold change in MIC (−P80/+P80) ([5]; strain ATCC 19609 (Non-MDR)): 4 | Colistin MIC −P80 ([5]; strain ATCC 19609 (Non-MDR)): 1 µg/mL | Colistin MIC +P80 ([5]; strain ATCC 19609 (Non-MDR)): 0.25 µg/mL
Compound: CCC(C)CCCC(=O)N[C@H](CCN)C(=O)N[C@H](C(=O)N[C@@H](CCN)C(=O)N[C@H]1CCNC(=O)[C@H]([C@@H](C)O)NC(=O)[C@H](CCN)NC(=O)[C@H](CCN)NC(=O)[C@H](CC(C)C)NC(=O)[C@@H](CC(C)C)NC(=O)[C@H](CCN)NC1=O)[C@@H](C)O (stereo in doubt) [COL, Colistin]
MIC [1, 6]: > 16 µg/mL | MIC [1, 7]: 0.25 µg/mL | MIC [1, 8]: 1 µg/mL | MIC [1, 9]: 0.25 µg/mL | MIC [1, 10]: 0.25 µg/mL | MIC ([1]; strain 2692721 (MDR), agent alone, time-kill conditions): 0.5 µg/mL | MIC [1, 11]: 0.5 µg/mL | MIC [1, 12]: 0.12 µg/mL | MIC [1, 13]: 0.5 µg/mL | MIC [1, 14]: 0.5 µg/mL | Concentrations that yielded synergy in time-kill ([2]; strain 2691748 (Non-MDR)): 1 µg/mL | Concentrations that yielded synergy in time-kill ([2]; strain 2691818 (Non-MDR)): 0.12 µg/mL | Concentrations that yielded synergy in time-kill ([2]; strain 2691999 (MDR)): 0.12 µg/mL | Concentrations that yielded synergy in time-kill ([2]; strain 2692406 (MDR)): 0.12 µg/mL | Concentrations that yielded synergy in time-kill ([2]; strain 2692650 (MDR)): 0.12 µg/mL | Concentrations that yielded synergy in time-kill ([2]; strain 2692721 (MDR)): 0.12 µg/mL | Concentrations that yielded synergy in time-kill ([2]; strain 2693922 (MDR)): 0.12 µg/mL | Concentrations that yielded synergy in time-kill ([2]; strain 2694038 (MDR)): 0.06 µg/mL | Concentrations that yielded synergy in time-kill ([2]; strain 2694224 (MDR)): 0.12 µg/mL | Concentrations that yielded synergy in time-kill ([2]; strain 2694227 (MDR)): 0.12 µg/mL | Concentrations that yielded synergy in time-kill ([2]; strain ATCC 19609 (Non-MDR)): 0.06 µg/mL | MIC ([3]; ATCC19609, strain ATCC 19609 (Non-MDR), agent alone, time-kill conditions, read-out: Broth macrodilution MICs): 0.25 µg/mL
